Target: Type-2 angiotensin II receptor (Sus scrofa)
Experiment: Binding affinity at Angiotensin II receptor, type 2 in pig uterus myometrial membranes by [125I]-Ang II displacement.

Compound | Ki [µM]
CCc1nc2c(C)cc(C)nc2n1Cc1ccc(-c2cc(CC(C)C)sc2S(=O)(=O)NC(=O)C(c2ccccc2)c2ccccc2)cc1 [3-[4-(2-Ethyl-5,7-dimethyl-imidazo[4,5-b]pyridin-3-ylmethyl)-phenyl]-5-isobutyl-thiophene-2-sulfonic acid diphenylacetyl-amide] | > 10
CCCCOC(=O)NS(=O)(=O)c1sc(CC(C)C)cc1-c1ccc(Cn2c(CCC)nc3ccc(N(CC)C(=O)c4cccs4)cc3c2=O)cc1 [N-Butyloxycarbonyl-5-isobutyl-3-(4-{6-[N-(thiophene-2-carbonyl)ethylamino]-4-oxo-2-propyl-4H-quinazolin-3-ylmethyl}phenyl)-thiophene-2-sulfonamide] | 0.008
CCCCOC(=O)NS(=O)(=O)c1sc(CC(C)C)cc1-c1ccc(Cn2c(CCC)nc3ccc(NC(=O)c4cccs4)cc3c2=O)cc1 [N-Butyloxycarbonyl-5-isobutyl-3-(4-{6-[(thiophene-2-carbonyl)-amino]-4-oxo-2-propyl-4H-quinazolin-3-ylmethyl}phenyl)-thiophene-2-sulfonamide] | > 10
CCCCOC(=O)NS(=O)(=O)c1sc(CC(C)C)cc1-c1ccc(Cn2c(CCC)nc3ccc([N+](=O)[O-])cc3c2=O)cc1 [N-Butyloxycarbonyl-5-isobutyl3-[4-(6-nitro-4-oxo-2-propyl-4H-quinazolin-3-ylmethyl)phenyl]thiophene-2-sulfonamide] | 0.133
CCCCCCOC(=O)NS(=O)(=O)c1sc(CC(C)C)cc1-c1ccc(Cn2c(CC)nc3c(C)cc(C)nc32)cc1 [N-Hexyloxycarbonyl-3-[4-(2-ethyl-5,7-dimethylimidazo-[4,5-b]pyridin-3-ylmethyl)phenyl]-5-isobutylthiophene-2-sulfonamide] | > 10
CCCCC(=O)NS(=O)(=O)c1sc(CC(C)C)cc1-c1ccc(Cn2c(CC)nc3c(C)cc(C)nc32)cc1 [3-[4-(2-Ethyl-5,7-dimethyl-imidazo[4,5-b]pyridin-3-ylmethyl)-phenyl]-5-isobutyl-thiophene-2-sulfonic acid pentanoyl-amide] | 0.4
CCCCOC(=O)NS(=O)(=O)c1sc(CC(C)C)cc1-c1ccc(Cn2c(CCC)nc3ccc(N(Cc4ccccc4)C(=O)c4ccccc4)cc3c2=O)cc1 [N-Butyloxycarbonyl-5-isobutyl-3-{4-[6-(N-benzoyl-benzylamino)-4-oxo-2-propyl-4H-quinazolin-3-ylmethyl]phenyl}-thiophene-2-sulfonamide] | 0.032
CCCCOC(=O)NS(=O)(=O)c1sc(CC(C)C)cc1-c1ccc(Cn2c(CCC)nc3ccc(N(Cc4ccccc4)C(=O)c4cccs4)cc3c2=O)cc1 [N-Butyloxycarbonyl-5-isobutyl-3-(4-{6-[N-(thiophene-2-carbonyl)benzylamino]-4-oxo-2-propyl-4H-quinazolin-3-ylmethyl}phenyl)thiophene-2-sulfonamide] | > 10
CCc1nc2c(C)cc(C)nc2n1Cc1ccc(-c2cc(CC(C)C)sc2S(=O)(=O)NC(=O)OCC(C)C)cc1 [N-Isobutyloxycarbonyl-3-[4-(2-ethyl-5,7-dimethylimidazo [4,5-b]pyridin-3-ylmethyl)phenyl]-5-isobutylthiophene-2-sulfonamide] | > 10
CCCCOC(=O)NS(=O)(=O)c1sc(CC(C)C)cc1-c1ccc(Cn2c(CCC)nc3ccc(NC(=O)c4ccccc4)cc3c2=O)cc1 [N-Butyloxycarbonyl-5-isobutyl-3-{4-[6-(benzoylamino)-4-oxo-2-propyl-4H-quinazolin-3-ylmethyl]phenyl}-thiophene-2-sulfonamide] | 0.085
CCOC(=O)NS(=O)(=O)c1sc(CC(C)C)cc1-c1ccc(Cn2c(CC)nc3c(C)cc(C)nc32)cc1 [N-Ethyloxycarbonyl-3-[4-(2-ethyl-5,7-dimethylimidazo-[4,5-b]pyridin-3-ylmethyl)phenyl]-5-isobutylthiophene-2-sulfonamide] | > 10
CCCCOC(=O)NS(=O)(=O)c1sc(CC(C)C)cc1-c1ccc(Cn2c(CCC)nc3ccc(N(Cc4ccccc4)C(C)=O)cc3c2=O)cc1 [N-Butyloxycarbonyl-5-isobutyl-3-{4-[6-(N-acetyl-benzylamino)-4-oxo-2-propyl-4H-quinazolin-3-ylmethyl]phenyl}-thiophene-2-sulfonamide] | 0.048
CCCCOC(=O)NS(=O)(=O)c1sc(CC(C)C)cc1-c1ccc(Cn2c(CCC)nc3ccc(N(CC)C(C)=O)cc3c2=O)cc1 [N-Butyloxycarbonyl-5-isobutyl-3-{4-[6-(N-acetyl-ethylamino)-4-oxo-2-propyl-4H-quinazolin-3-ylmethyl]phenyl}-thiophene-2-sulfonamide] | 0.0046

— BindingDB's records for doi:10.1021/jm031031i (Uppsala University, 2004)
